From PubChem BioAssay (NCI)
“And” between values parts separate entries of the source, which are not always exact repeats. Equal values may be shown once.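 Following 48 hours of exposure in 96-well plates, responses at five concentrations were used to interpolate endpoints linearly. GI50 marks 50% less growth. At the TGI there is no net growth.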

Key:
Assay in all cases: growth of human tumour cells (NCI), 48 h
[1] = tested on: A498 renal
[2] = tested on: IGROV1 ovarian
[3] = tested on: KM12 colon
[4] = tested on: MCF7 breast
[5] = tested on: MDA-MB-231 breast
[6] = tested on: OVCAR-3 ovarian
[7] = tested on: OVCAR-8 ovarian
[8] = tested on: SF-539 CNS
[9] = tested on: SNB-19 CNS
[10] = tested on: UO-31 renal

| Compound | GI50 [1] | TGI [1] [µM] | GI50 [2] | TGI [2] | GI50 [3] | TGI [3] [µM] | GI50 [4] | TGI [4] [µM] | GI50 [5] | TGI [5] [µM] | GI50 [6] | TGI [6] | GI50 [7] | TGI [7] [µM] | GI50 [8] | TGI [8] [µM] | GI50 [9] | TGI [9] [µM] | GI50 [10] | TGI [10] |
| --- | --- | --- | --- | --- | --- | --- | --- | --- | --- | --- | --- | --- | --- | --- | --- | --- | --- | --- | --- | --- |
| CCN1C(=S)N(c2ccccc2)C2NC(=S)N(/N=C/C=C/c3ccccc3OC)C21 (configuration not stated) | 0.235 µM | 0.833 | 0.606 µM | > 100 µM | 0.323 µM | > 64.8 | 0.331 µM | > 100 | 0.544 µM | > 27.4 | 0.267 µM | 0.721 µM | 0.487 µM | > 100 | 0.253 µM | 0.732 | 0.496 µM | > 100 | 0.675 µM | > 100 µM |
| CCSCC1CC(O)(c2ccccc2)CC(c2ccc(F)cc2)O1 (configuration not stated) | 1.44 µM | 2.77 | 2.12 µM | 5.75 µM | 1.88 µM | 3.67 | 2.79 µM | 8.98 | 1.98 µM | 4.39 | 1.83 µM | 3.4 µM | 2.95 µM | 8.79 | 1.94 µM | 3.84 | 2.63 µM | 9.36 | 1.4 µM | 5.1 µM |
| Cc1nc([P+](c2ccccc2)(c2ccccc2)c2ccccc2)c(Sc2sc(-c3ccccc3)nc2[P+](c2ccccc2)(c2ccccc2)c2ccccc2)o1 | 1.5 µM | 4.68 | 1.4 µM | 4.83 µM | 1.39 µM | 3.35 | 0.669 µM | 4.81 | 1.86 µM | 6.27 | 0.76 µM | 3.29 µM | 0.867 µM | 11.6 | 2.3 µM | 7.34 | 1.6 µM | 12.2 | 1.81 µM | 5.99 µM |
| COc1cc2c(cc1OC)[C@@H](Nc1ccc(C#N)cc1)C1COC(=O)[C@@H]1C2c1cc(OC)c(O)c(OC)c1 (some centres not stated) | – | 0.794 | 7.06 µM and 5.07 µM | 95 µM and > 100 µM | 1.43 µM | – | – | > 100 | – | 6.67 | 3.26 µM and 5.65 µM | 20 µM and 28.4 µM | 0.472 µM and 1.55 µM | – | – | 0.856 | – | 95 | – | 11.9 µM |
| CC(=O)c1ccc2c(c1)c1cc(C(C)=O)ccc1n2CCNC(C)C | 0.398 µM | 1.89 | 0.341 µM | 6.73 µM | 0.427 µM | 3.4 | 0.294 µM | 1.11 | 0.516 µM | 3.16 | 0.506 µM | 3.91 µM | 0.373 µM | 3.87 | 0.478 µM | 2.02 | 0.3 µM | 1.62 | 0.2 µM | 0.704 µM |
| OCCN1CCN(CCCN2c3ccccc3Sc3ccc(Cl)cc32)CC1 | 1.56 µM | 5.87 | 3.12 µM | 12.2 µM | 1.91 µM | 3.69 | 2.02 µM | 3.96 | 1.99 µM | 4.78 | 2.59 µM | 6.73 µM | 2.02 µM | 4.7 | 1.82 µM | 3.94 | 2.3 µM | 5.7 | 4.38 µM | 18.3 µM |
| Cc1cc(S(=O)(=O)Nc2nc3ccccc3o2)c(SCc2ccccc2)cc1Cl | 23.1 µM | 43.3 | 48.9 µM | > 100 µM | 18.4 µM | 43.4 | 22.4 µM | 78.3 | 35.9 µM | 90.5 | 16.7 µM | 42.1 µM | 21 µM | 50.2 | 19.1 µM | 40.8 | 21.6 µM | 67.8 | 32.9 µM | > 100 µM |
| Fc1cc2[nH]ncc2c2c3c(c(-c4cn[nH]c4C(F)(F)F)nc12)CCCC3 | 1.56 µM | 3.09 | 0.802 µM | 5.88 µM | 2.13 µM | 15.3 | 1.18 µM | > 100 | 1.83 µM | 7.23 | 2.75 µM | > 100 µM | 2.04 µM | > 100 | 1.29 µM | 3.06 | 2.29 µM | 9.37 | 1.56 µM | 6.02 µM |
| CCOC(=O)c1cc(C(=O)c2cc(OC)c(OC)c(OC)c2)n2ncccc12 | 0.0466 µM | 0.742 | 3.47 µM | > 100 µM | 0.342 µM | > 100 | 0.131 µM | > 100 | 1.82 µM | > 100 | 0.145 µM | 1.84 µM | 0.584 µM | > 100 | 0.292 µM | 2.28 | 0.705 µM | > 100 | 0.782 µM | > 100 µM |
| COc1cc(/C=C\c2cc(OC)c(OC)c(OC)c2)cc(N/C=C\C(=O)c2ccc(OC(F)(F)F)cc2)c1OC | 1.83 µM | 7.59 | 7.06 µM | > 100 µM | 3.69 µM | > 100 | 4.08 µM | > 100 | 3 µM | 14.5 | 3.48 µM | 10.6 µM | 4.59 µM | > 100 | 2.21 µM | 5.92 | 4.97 µM | > 100 | 5.42 µM | > 100 µM |
| COc1ccc(C2CC(c3cccc(Nc4ccnc5cc(Cl)ccc45)c3)=NN2C=O)cc1 (configuration not stated) | 0.325 µM | 4.2 | 1.9 µM | > 100 µM | 0.4 µM | > 36.4 | 0.361 µM | > 100 | 1.7 µM | > 66.4 | 0.383 µM | 3.59 µM | 1.12 µM | > 100 | 0.785 µM | 8.42 | 0.902 µM | > 100 | 0.989 µM | > 100 µM |
| COC(=O)c1n[nH]c(C)c1N=NN(C)CCC#N | – | > 100 | – | 93.6 µM | – | 51.4 | – | 25.7 | – | 62.8 | – | 42.2 µM | – | 34.4 | – | 30.3 | – | 87 | – | 13.3 µM |
| c1cc(NNc2cccc(-c3nn[nH]n3)c2)cc(-c2nn[nH]n2)c1 | – | > 100 | – | > 100 µM | – | > 100 | – | > 100 | – | > 100 | – | > 100 µM | – | > 100 | – | > 100 | – | > 100 | – | > 100 µM |
| Nc1nccc(-c2c(-c3ccc(F)cc3)ncn2C2CCNCC2)n1 | 8.88 µM and 2.16 µM | > 25 | 5.13 µM and 4.73 µM | > 25 µM | 4.26 µM and 4.01 µM | > 25 | 0.62 µM and 0.827 µM | > 17.2 | > 25 µM and 3.97 µM | > 25 | 6.78 µM and 4.93 µM | > 25 µM | 5.88 µM and 1.43 µM | > 25 | 23.5 µM and 8.37 µM | > 25 | 6.91 µM and 3.96 µM | > 25 | 10.9 µM and 3.04 µM | > 25 µM and 17.4 µM |
| CCN(CC)c1ccc(/C=N/NC(=O)CSc2nc3ccccc3c(=O)n2CCc2ccc(S(N)(=O)=O)cc2)c(O)c1 | > 100 µM | > 100 | 1.48 µM | > 100 µM | 1.56 µM | > 100 | 1.64 µM | > 100 | 2.27 µM | 50.2 | 0.296 µM | > 100 µM | 1.03 µM | > 100 | 2.42 µM | 66.5 | 3.72 µM | > 100 | 2.86 µM | > 100 µM |
| CC(C)c1[nH]nc(C(N)=O)c1N=NN(C)C | – | > 100 | – | > 100 µM | – | > 100 | – | > 100 | – | > 100 | – | > 100 µM | – | > 100 | – | > 100 | – | > 100 | – | 2.19 µM |
| CCN(Cc1ccc(C)cc1)c1ccc(CO)c(Cl)c1 | 0.0398 µM | 0.178 | 0.108 µM | 0.938 µM | 14.6 µM | 29.6 | 0.191 µM | 11 | 12.5 µM | 29.6 | 0.605 µM | 5.31 µM | 10.6 µM | 26.1 | 14.2 µM | 28.3 | 14.5 µM | 31.1 | 3.81 µM | 17.7 µM |
| NNC(=S)N/N=C(\C(=O)Nc1cccc(O)c1)C1C(=O)NC(=S)NC1=O | – | > 100 | – | > 100 µM | – | > 100 | – | > 100 | – | > 100 | – | > 100 µM | – | > 100 | – | > 100 | – | > 100 | – | > 100 µM |
| CC(C)(Br)C(=O)N1CCN(C(c2ccccc2)c2ccccc2)CC1 | – | > 100 | – | > 100 µM | – | 31.8 | – | 81.8 | – | > 100 | – | 36.8 µM | – | > 100 | – | > 100 | – | > 100 | – | > 100 µM |
| COc1ccc2c(c1OC)C[C@@H]1c3c(cc4c(c3-2)OCO4)CCN1C | – | 63.5 | – | 99.1 µM | – | > 100 | – | > 100 | – | > 100 | – | > 100 µM | – | > 100 | – | 50 | – | > 100 | – | 45.4 µM |
| CC(=O)O[C@H]1C(=O)[C@@]2(C)C(C(OC(=O)c3ccccc3)[C@]3(O)C[C@H](OC(=O)C(OC(=O)CCCC(=O)NCCCN(C)C)C(NC(=O)c4ccccc4)c4ccccc4)C(C)=C1C3(C)C)C1(OC(C)=O)COC1C[C@@H]2O (some centres not stated) | – | 45.6 | – | 59 µM | – | 3.19 | – | 48.5 | – | 13.8 | – | < 0.01 µM | – | 15.3 | – | 0.0184 | – | > 100 | – | 64 µM |
| COc1ccc(/C=C(/C#N)C(N)=O)c(OC)c1 | – | 25.7 | – | > 100 µM | – | > 100 | – | > 100 | – | > 100 | – | > 100 µM | – | > 100 | – | > 100 | – | > 100 | – | 26.8 µM |
| COc1cc(Nc2nc3cc(N)cc(N)c3nc2-c2ccccc2)cc(OC)c1OC | 31.3 µM | > 100 | 15.7 µM | 58.2 µM | 10.6 µM | 29.5 | 25.5 µM | 94.5 | 11.1 µM | 29.2 | 14.2 µM | 37.1 µM | 15.3 µM | 34.9 | 14.8 µM | 28.9 | 33.1 µM | > 100 | 15.1 µM | 90.3 µM |
| C=C1CC[C@@H]2[C@](C)(COC(C)=O)[C@H](OC(C)=O)CC[C@@]2(C)[C@@H]1CC(Nc1ccc(S(=O)(=O)NC(C)=O)cc1)C1=CCOC1=O (some centres not stated) | 10.3 µM | 20.1 | 5.31 µM | 15.4 µM | 5.11 µM | 15.9 | 1.92 µM | 11.3 | 3.32 µM | 11.6 | 1.49 µM | 3.02 µM | 2.25 µM | 8.42 | 2.39 µM | 7.77 | 8.19 µM | 18.9 | 3.71 µM | 13.2 µM |
| COc1ccc(/C=C/C(=O)c2cc(OC)c(OC)c(OC)c2)cc1OCC(=O)Nc1nc2ccc(OC(F)(F)F)cc2s1 | 7.4 µM | 31.7 | 2.54 µM | 5.56 µM | 1.51 µM | 4.19 | 1.32 µM | 7.77 | 2.01 µM | 5.01 | 1.52 µM | 3.14 µM | 1.54 µM | 3.89 | 0.293 µM | 1.18 | 1.58 µM | 51.8 | 1.61 µM | 5.07 µM |
| Cc1cc2nc3c4cc(O)ccc4n(CCN(C)C)c3nc2cc1C | 0.403 µM | 2.04 | 0.474 µM | 2.89 µM | 1.38 µM | 7.8 | 0.45 µM | 3.26 | 0.898 µM | 5.71 | 1.77 µM | 8.19 µM | 0.494 µM | 4.73 | 0.519 µM | 2.09 | 0.609 µM | 12.3 | 0.292 µM | 2.07 µM |
